# Assay results from patent US6613793B2 (Dabur Research Foundation, priority 2001, dated 2003).
# Read-outs that look alike come from different tables or passages of the source.
# How the values were obtained:
# MCF7 breast = assay: MTT cytotoxicity assay, MCF7; type: cell-based; details: Homo sapiens; for IC50: 24 h, MCF7 Breast, read-out: ED50 values of cytotoxicity
# Experimental: (§1) Briefly, a three day MTT cytotoxicity assay was performed, which is based on the principle of uptake of MTT (3-(4,5-dimethylthiazol-2-yl)-2,5-diphenyl tetrazolium bromide), a tetrazolium salt, by the metabolically active cells where it is metabolized by active mitochondria into a blue colored formazan product that is read spectrophotometrically. MTT was dissolved in phosphate buffered saline with a pH of 7.4 to obtain an MTT concentration of 5 mg/ml; the resulting mixture was filtered through a 0.22 micron filter to sterilize and remove a small amount of insoluble residue. For each type of tumor cell, 20,000 to 50,000 cells were seeded in a 96-well culture plate and incubated with the combination in a CO2 incubator for 24 hours. […] After incubating for one hour, the plate was read spectrophotometrically at 540 nm and the percentage cytotoxicity calculated.
# ECV304 cells = assay: Inhibition of tube-like-structure (TLS) formation on Matrigel; type: cell-based; design: key: significant (++); marginal (+); no effect (−); details: 24 hours
# Experimental: Matrigel (70 ul) was placed into each well of a 96-well culture plate at 4° C. and was allowed to polymerize by incubation at 37° C. for 30 min. ECV304 (1×10^4) cells were seeded on the Matrigel in 200 ul DMEM supplemented with 10% FBS. The compounds to be tested were added to marked wells at selected non-cytotoxic concentrations and incubated at 37° C. for 24 hours. Five different phase-contrast microscopic fields (4X) were viewed and tube-like structure formation was evaluated qualatively by observing formation of lumen (sprouting) and extent of formation of branches and loops by sprouts (intususception). The inhibition of TLS caused by the addition of the test compound was recorded as significant (++), marginal (+), or no effect (−) as compared to the control TLS formation. A summary of the results is given below in the form of a table indicating the concentrations tested.
# Swiss albino mice = type: in vivo; details: oral; for safe dose: Swiss albino mice weighing 25 grams; for Mortality: observed 15 days
# 293 Kidney = assay: MTT cytotoxicity assay, 293; type: cell-based; details: Homo sapiens, 24 h, read-out: ED50 values of cytotoxicity
# Experimental: as §1
# PA 1 Ovary = assay: MTT cytotoxicity assay, PA 1; type: cell-based; details: Homo sapiens, 24 h; PA 1 Ovarian; read-out: ED50 values of cytotoxicity
# Experimental: as §1
# [1] = test system: PTC (Colon) Tumor Xenografts; assay: Antitumor activity on PTC (Colon) tumor xenografts in nude mice; type: in vivo, Balb/c athymic mice; details: 10 mg orally once a day for 15 days; at the end of treatment
# Experimental: PTC (colon) tumor xenografts were initiated in Balb/c athymic mice by subcutaneous inoculation of a single cell suspension of PTC cells (15×10^6 cells/100 μL). […] The anti-tumor activity was monitored by measuring tumor volumes every fourth day and calculating volumes using the formula 0.4×W^2×L(W=smaller dia, L=larger dia,).
# KB Oral = assay: MTT cytotoxicity assay, KB; type: cell-based; details: Homo sapiens, 24 h, read-out: ED50 values of cytotoxicity
# Experimental: as §1
# U87MG Glioblastoma = assay: MTT cytotoxicity assay, U87MG; type: cell-based; details: Homo sapiens, U-87 MG, 24 h, read-out: ED50 values of cytotoxicity
# Experimental: as §1
# Miapaca2 Pancreas = assay: MTT cytotoxicity assay, Miapaca2; type: cell-based; details: Homo sapiens, MIA PaCa-2, 24 h, read-out: ED50 values of cytotoxicity
# Experimental: as §1
# MOLT 4 Leukemia = assay: MTT cytotoxicity assay, MOLT 4; type: cell-based; details: Homo sapiens, 24 h, read-out: ED50 values of cytotoxicity
# Experimental: as §1
# INT 407 Intestine = assay: MTT cytotoxicity assay, INT 407; type: cell-based; details: Homo sapiens, 24 h, read-out: ED50 values of cytotoxicity
# Experimental: as §1
# [2] = test system: Glyceraldehyde 3 phosphate dehydrogenase; assay: Glyceraldehyde 3 phosphate dehydrogenase enzyme activity assay; type: biochemical
# Experimental: The activity of Glyceraldehyde 3 phosphate dehydrogenase enzyme was assayed by the methods detailed earlier. (Krebs E, 1955, Methods in Enzymology, 1 407 and Velick S, 1955, Methods in Enzymology, 1, 401). To monitor the reaction, the increase in absorbance at 340 nm due to the formation of NADH from NAD was recorded at 15 seconds intervals, the values remaining almost linear for 3 minutes. The assay mixture was in a total volume of 1.5 ml containing 1.3 ml of Sodium pyrophosphate buffer (0.015M; pH 8.5), containing sodium arsenate (0.03M), 0.05 ml of NAD (7.5 mM), 0.05 ml of DTT (0.1M) and 0.05 ml of DL- glyceraldehyde 3 phosphate (7 mM). The enzyme was diluted 1:100 immediately prior to use in Sodium pyrophosphate buffer (0.015M) (pH 8.5) containing sodium arsenate (0.03M). The reaction was initiated by the addition of 0.05 ml of glyceraldehyde 3 phosphate dehydrogenase enzyme. The test mixture contained methyl glyoxal or its conjugates in concentrations ranging from 0.5 mM to 5 mM. Methyl glyoxal and its conjugates were dissolved in 2.5% ethanol and water. The control experiments were carried out in the absence of the enzyme or the substrate under identical conditions. One unit of activity of glyceraldehyde 3 phosphate dehydrogenase is defined as the amount of enzyme required to convert lumol of NAD to NADH per minute under conditions defined as above.
# Hep2 Larynx = assay: MTT cytotoxicity assay, Hep2; type: cell-based; details: Homo sapiens, HEp-2, 24 h, read-out: ED50 values of cytotoxicity
# Experimental: as §1
# DU145 Prostate = assay: MTT cytotoxicity assay, DU145; type: cell-based; details: Homo sapiens, DU-145, 24 h, read-out: ED50 values of cytotoxicity
# Experimental: as §1
# L132 Lung = assay: MTT cytotoxicity assay, L132; type: cell-based; details: Homo sapiens, 24 h, read-out: ED50 values of cytotoxicity
# Experimental: as §1
# PTC Colon = assay: MTT cytotoxicity assay, PTC; type: cell-based; details: Homo sapiens, 24 h, read-out: ED50 values of cytotoxicity
# Experimental: as §1
# [3] = dosage level 2.5X (X=400 mg/kg B.Wt.)
# [4] = dosage level 3.5X (X=400 mg/kg B.Wt.)
# [5] = dosage level 5X (X=400 mg/kg B.Wt.)
# [6] = dosage level 7.5X (X=400 mg/kg B.Wt.)
# [7] = dosage level 10X (X=400 mg/kg B.Wt.)
SMILES,TLS Inhibition (Qualitative) (ECV304 cells; 1.2 mM),safe dose (Swiss albino mice) [mg],Mortality (Swiss albino mice; [3]),Mortality (Swiss albino mice; [4]),Mortality (Swiss albino mice; [5]),Mortality (Swiss albino mice; [6]),Mortality (Swiss albino mice; [7]),IC50 (293 Kidney) [mM],IC50 (PA 1 Ovary) [mM],IC50 (KB Oral) [mM],Percent Inhibition Of Glyceraldehyde 3 Phosphate Dehydrogenase Activity ([2]; 0.5 mM) [%],Percent Inhibition Of Glyceraldehyde 3 Phosphate Dehydrogenase Activity ([2]; 1 mM) [%],Percent Inhibition Of Glyceraldehyde 3 Phosphate Dehydrogenase Activity ([2]; 5 mM) [%],other results
"COC(=O)C1CCC(=O)N1C(O)C(C)=O (stereo not shown) [MGC-1, N-(1-Hydroxy-2-ketopropyl)-methylpyroglutamate]",,,,,,,,,,,,,,"cytotoxicity at 1000 µM (MCF7 breast; MCF7, 1.0 mM, read-out: Percent cytotoxicity): 0%; cytotoxicity at 5000 µM (MCF7 breast; MCF7, 5 mM, read-out: Percent cytotoxicity): 12.9 ± 2.1%"
"CCCCOC(=O)C1CCC(=O)N1C(O)C(C)=O (stereo not shown) [MGC-2, N-(1-Hydroxy-2-ketopropyl)-butylpyroglutamate]",+,75,0/10,0/10,0/10,0/10,10/10,2 ± 0.8,,,,,,
"CC(=O)C(O)N1C(=O)CCC1C(=O)OCc1ccccc1 (stereo not shown) [MGC-3, N-(1-Hydroxy-2-ketopropyl)-benzylpyroglutamate]",,,,,,,,,1.8 ± 0.6,,,,,TLS Inhibition (Qualitative) (ECV304 cells; 2 mM): +; TLS Inhibition (Qualitative) (ECV304 cells; 2.5 mM): ++
"COC(=O)C1CCC(=O)N1C(OC(C)=O)C(C)=O (stereo not shown) [MGC-4, N-(1-Acetoxy-2-ketopropyl)-methylpyroglutamate]",−,100,0/10,0/10,0/10,0/10,0/10,,,,,,,average tumor volume as compared to average tumor volume of untreated control tumors [1]: 41%
"CCCCOC(=O)C1CCC(=O)N1C(OC(C)=O)C(C)=O (stereo not shown) [MGC-5, N-(1-Acetoxy-2-ketopropyl)-butylpyroglutamate]",+,,,,,,,1.9 ± 0.7,,2 ± 0.7,,,,
"CC(=O)OC(C(C)=O)N1C(=O)CCC1C(=O)OCc1ccccc1 (stereo not drawn) [MGC-6, N-(l-acetoxy-2-ketopropyl)-benzylpyroglutamate]",−,75,0/10,0/10,0/10,0/10,10/10,2.9 ± 1,1.4 ± 0.2,2.95 ± 0.3,28.3 ± 2.5,29.4 ± 3.0,30.1 ± 4.0,IC50 (U87MG Glioblastoma): 4.78 ± 0.6 mM; IC50 (MCF7 breast): > 5 mM; IC50 (Miapaca2 Pancreas): 3.9 ± 1 mM; IC50 (MOLT 4 Leukemia): 1.3 ± 0.3 mM; IC50 (INT 407 Intestine): > 5 mM; IC50 (Hep2 Larynx): 1.2 ± 0.2 mM; IC50 (DU145 Prostate): 1.9 ± 1 mM; IC50 (L132 Lung): 3.8 ± 1 mM; IC50 (PTC Colon): 1.6 ± 0.4 mM
"CCOC(=O)C1CCC(=O)N1C(O)C(C)=O (stereo not shown) [MGC-7, N-(1-Hydroxy-2-ketopropyl)-ethylpyroglutamate]",,100,0/10,0/10,0/10,0/10,0/10,,,,,,,
"CCOC(=O)C1CCC(=O)N1C(OC(C)=O)C(C)=O (stereo not shown) [MGC-8, N-(1-Acetoxy-2-ketopropyl)-ethylpyroglutarnate]",,100,0/10,0/10,0/10,0/10,0/10,,1.8 ± 0.7,1.95 ± 0.8,32.8 ± 1.2,40.1 ± 2.2,38.2 ± 1.9,IC50 (U87MG Glioblastoma): 1.88 ± 0.7 mM; IC50 (MCF7 breast): 2.4 ± 1.2 mM; IC50 (MOLT 4 Leukemia): 2.9 ± 0.5 mM; IC50 (INT 407 Intestine): 0.55 ± 0.3 mM; IC50 (Hep2 Larynx): 2.1 ± 0.6 mM; IC50 (DU145 Prostate): 1.3 ± 0.3 mM; IC50 (L132 Lung): > 5 mM; IC50 (PTC Colon): 2.75 ± 0.4 mM
"CC(=O)C=O [Methylglyoxal, reference compound]",,,,,,,,,,,15 ± 4,18 ± 3.4,20 ± 4.0,TLS Inhibition (Qualitative) (ECV304 cells; 0.5 mM): +; TLS Inhibition (Qualitative) (ECV304 cells; 0.8 mM): +; TLS Inhibition (Qualitative) (ECV304 cells; 1 mM): ++; Glyceraldehyde 3 phosphate dehydrogenase enzyme activity inhibition (in words) ([2]; concentration ranging from 0.5 mM to 5 mM): inhibited significantly; average tumor volume as compared to average tumor volume of untreated control tumors [1]: 50%
